From patent publication US6620817B1, “[5-CHLORO-6-PHENYL-2-(4-TRIFLUOROMETHYLPHENYL)-4-PYRIMIDINYLAMINO]ACETAMIDE DERIVATIVES, PROCESS FOR PRODUCING THE SAME, MEDICINAL COMPOSITIONS CONTAINING THE SAME AND INTERMEDIATE OF THESE COMPOUNDS” (Dainippon Pharmaceutical Co., Ltd., priority 1999, dated 2003) come the findings set out here.

The test system of data set [1] is male mice of ICR strain. Description: Subacute toxicity test (repetitive oral administration for 14 days). It is filed as in vivo. Details: key to ALT (alanine aminotransferase), significance vs solvent-treated control: −: no significant differences (Student's t-test); +: p < 0.05 (Student's t-test); ++: p < 0.01 (Student's t-test). The following applies: for ALT (alanine aminotransferase) vs vehicle-treated control group (in words) / AST (aspartate aminotransferase) vs vehicle-treated control group / BUN (blood urea nitrogen) vs vehicle-treated control group / wet-weights of various organs such as liver, spleen vs vehicle-treated control group / change in the body weight during the test vs vehicle-treated control group: 14 days oral; for ALT (alanine aminotransferase) vs vehicle-treated control group (in words) / AST (aspartate aminotransferase) vs vehicle-treated control group: parameter for liver dysfunction; for BUN (blood urea nitrogen) vs vehicle-treated control group: parameter for renal dysfunction; for wet-weights of various organs such as liver, spleen vs vehicle-treated control group: weight per body; for ALT (alanine aminotransferase), significance vs solvent-treated control: blood plasma; for ALT (alanine aminotransferase), significance vs solvent-treated control / Other remarks: male ICR mice; for change in the body weight during the test vs vehicle-treated control group: even at a high dose of 300 mg/kg; for Other remarks: remarks observed during the 14-day oral test. As to the method: Subacute toxicity test was carried out by repetitive administration of a test compound to mice for 14 days. That is, a test compound was orally administered to male mice of ICR strain once a day for 14 days. On the day following the final administration, the mice were anesthetized with Nembutal, and the blood was taken out therefrom, and further various organs were taken out. The wet-weight of each organ was determined, and was converted into a weight per body, and then compared. The blood plasma was subjected to various biochemical tests, mainly to tests for parameters for liver function and renal function. The results of these tests were statistically compared with those in the solvent-treated control group. The data of the biochemical tests, for example, ALT (alanine aminotransferase) as a parameter for liver dysfunction and other remarks observed during the test (see the column of “other remarks” in Table 3) are shown in Table 3.

Data set [2] has as its system collagen-induced arthritis. Kind of data set: Collagen-induced arthritis inhibitory test. It is filed as in vivo, mice. The following applies: for Inhibitory rate: score of arthritis on the 52nd day after the first immunization vs control group, male DBA/IJ mice. As for the experimental part:
Collagen-induced arthritis inhibitory test is an experimental model for rheumatoid arthritis reported by Trethan, D. E. et al. [cf. […] J. Immunol., 140, 78-83 (1988)].
Collagen-induced arthritis inhibitory test was carried out according to the method of Kakimoto, K. et al. (cf. above reference of Kakimoto, K. et al.) with slight modification. That is, solubilized bovine cartilage type II collagen (product of Elastine Products, U.S.A.) was emulsified in complete Freund's adjuvant (product of DIFCO Lab., U.S.A.) to give a homogeneous emulsion. Male mice of DBA/IJ strain (6 week-old; product of Nippon Charles River, Japan) were immunized by injection at the base of the tail with 150 μg of the emulsified collagen. Twenty one days after the first immunization, arthritis was induced by a booster immunization of 150 μg of the emulsified collagen prepared in the same manner as above at the base of the tail again. A test compound was orally administered 5 days a week except for Saturdays and Sundays, which was started on the day of the first immunization and continued until the termination of the experiment. Mice were daily observed since the 8th day after the booster immunization for the onset of arthritis, and an arthritic score was derived by grading the severity of involvement of each paw five scales according to the method of Wood, F. D. et al. [cf. Int. Arch. Allergy Appl. The severity of arthritis was estimated by the sum of the scores of all 4 paws of both forepaws and both hind paws, and the onset of the disease was considered when score 1 was observed.
The inhibitory rate was obtained by comparing the score of arthritis on the 52nd day after the first immunization with that of the control group.

The mark [3] stands for this setting: dose 100 mg/kg orally once a day for 14 days.
Where [4] appears, read: dose 200 mg/kg orally once a day for 14 days.
Setting [5] is: dose 300 mg/kg orally once a day for 14 days.

For `CN(C(=O)CNc1nc(-c2ccc(C(F)(F)F)cc2)nc(-c2ccccc2)c1Cl)C1CC1` [Example 2, 2-[5-chloro-6-phenyl-2-(4-trifluoromethylphenyl)-4-pyrimidinylamino]-N-cyclopropyl-N-methylacetamide], in data set [1], the “ALT (alanine aminotransferase) vs vehicle-treated control group (in words)” value is “not significantly different”; the “AST (aspartate aminotransferase) vs vehicle-treated control group” value is given as “not significantly different”; the “BUN (blood urea nitrogen) vs vehicle-treated control group” value was “not significantly different”; the “wet-weights of various organs such as liver, spleen vs vehicle-treated control group” value is on record as “not significantly different”. Further, in data set [1], the “change in the body weight during the test vs vehicle-treated control group” value is given as “not significantly different” and the Other remarks entry is recorded as “no particular remark”. Also, the “ALT (alanine aminotransferase), significance vs solvent-treated control” value (shortened to “ALT … significance vs solvent-treated control”) in data set [1] (setting [3]) is “−”. In data set [1] (setting [4]), the “ALT … significance vs solvent-treated control” value is given as “−”. Besides, the “ALT … significance vs solvent-treated control” value in data set [1] (setting [5]) is “−”. Besides, in data set [2] (dose 0.3 mg/kg orally), the Inhibitory rate was determined as 29.1%. The Inhibitory rate in data set [2] (dose 10 mg/kg orally) is 96.6%.

With `CN(C)C(=O)CNc1nc(-c2ccc(C(F)(F)F)cc2)nc(-c2ccccc2)c1Cl` [Example 1, 2-[5-chloro-6-phenyl-2-(4-trifluoromethylphenyl)-4-pyrimidinylamino]-N,N-dimethylacetamide], in data set [1], the “ALT (alanine aminotransferase) vs vehicle-treated control group (in words)” value was “not significantly different”; the “AST (aspartate aminotransferase) vs vehicle-treated control group” value is on record as “not significantly different”; the “BUN (blood urea nitrogen) vs vehicle-treated control group” value was “not significantly different”; the “wet-weights of various organs such as liver, spleen vs vehicle-treated control group” value is listed as “not significantly different”. For the same compound, in data set [1], the “change in the body weight during the test vs vehicle-treated control group” value is listed as “not significantly different” and the Other remarks entry was “no particular remark”. Moreover, the “ALT … significance vs solvent-treated control” value in data set [1] (setting [3]) is reported as “−”. Further, in data set [1] (setting [4]), the “ALT … significance vs solvent-treated control” value is given as “−”. Moreover, in data set [1] (setting [5]), the “ALT … significance vs solvent-treated control” value is “−”. The compound further showed an Inhibitory rate in data set [2] (dose 0.3 mg/kg orally) of 20.0%. For the same compound, the Inhibitory rate in data set [2] (dose 10 mg/kg orally) is recorded as 96.0%.

On to `Cc1nc(-c2ccc(C(F)(F)F)cc2)nc(NCC(=O)N(C)C)c1C` [Reference Example B, 2-[5,6-dimethyl-2-(4-trifluoro-methylphenyl)-4-pyrimidinylamino]-N,N-dimethylacetamide], for which the “side effect on liver and kidney” value in data set [1] (dose 100 mg/kg) was “potent side effect on liver and kidney”. For the same compound, the “ALT … significance vs solvent-treated control” value in data set [1] (setting [3]) is listed as “++ (p < 0.01 (Student's t-test))”. For the same compound, in data set [1], the Other remarks entry is given as “peritoneal fluid, renal damage”. Also, the Inhibitory rate is 0.0% in data set [2] (dose 0.3 mg/kg orally), 41.8% in data set [2] (dose 1 mg/kg orally), 63.9% in data set [2] (dose 3 mg/kg orally) and 97.6% in data set [2] (dose 10 mg/kg orally). Moreover, the “anti-rheumatoid activity compared with Examples 1 and 2” value is “weaker than the compounds of Example 1 and Example 2” in data set [2] (dose 3 mg/kg or less); “as potent as the compounds of Example 1 and Example 2” in data set [2] (dose 10 mg/kg).

For the compound `CCCN(CCC)C(=O)CNc1nc(-c2ccc(C(F)(F)F)cc2)nc(C)c1C` [Reference Example A, 2-[5,6-dimethyl-2-(4-trifluoro-methylphenyl)-4-pyrimidinylamino]-N,N-dipropylacetamide, reference compound], the “effect on the above parameters (body weight, organ weights, ALT, AST, BUN)” value in data set [1] (dose 100 mg/kg) is “did not affect”. Moreover, the results for the “ALT … significance vs solvent-treated control” value in data set [1] (setting [3]), in data set [1] (setting [4]) and in data set [1] (setting [5]) were “−”, “−” and “+ (p < 0.05 (Student's t-test))”, respectively. The “effect on the liver” value in data set [1] (high dose of 300 mg/kg) is “did affect the liver in some degree”. Besides, the Other remarks entry in data set [1] is “no particular remark”. Further, in data set [2] (dose 3 mg/kg), the “inhibitory effects (in words)” value is on record as “hardly showed any inhibitory effects”. The Inhibitory rate was 15.5% in data set [2] (dose 3 mg/kg orally) and 73.2% in data set [2] (dose 10 mg/kg orally).
